Source: patent publication US20100168102A9, “Amide Derivatives as Kinase Inhibitors” (Devgen NV, priority 2005, published 2010)

Columns and labels:
human ROCKα/ROCKII mix = biological target: T1, human ROCKα/ROCKII mix (Homo sapiens, UniProt O75116); experiment: Biochemical assay for ROCK (fluorescence polarization, ROCK IMAP Kit); conditions: compounds of Formula XIV, Table 3
T1 construct: purchased Upstate Biotechnology 14-451

PKC epsilon = biological target: T2, PKC epsilon (Homo sapiens, UniProt Q02156); experiment: Biochemical assay for PKC epsilon (fluorescence polarization, Protein Kinase C Assay Kit, Red); conditions: compounds of Formula XIV, Table 3; read-out: IC50 μM PKCε
T2 construct: purchased Invitrogen P2282
T2 sequence (Q02156 1-737): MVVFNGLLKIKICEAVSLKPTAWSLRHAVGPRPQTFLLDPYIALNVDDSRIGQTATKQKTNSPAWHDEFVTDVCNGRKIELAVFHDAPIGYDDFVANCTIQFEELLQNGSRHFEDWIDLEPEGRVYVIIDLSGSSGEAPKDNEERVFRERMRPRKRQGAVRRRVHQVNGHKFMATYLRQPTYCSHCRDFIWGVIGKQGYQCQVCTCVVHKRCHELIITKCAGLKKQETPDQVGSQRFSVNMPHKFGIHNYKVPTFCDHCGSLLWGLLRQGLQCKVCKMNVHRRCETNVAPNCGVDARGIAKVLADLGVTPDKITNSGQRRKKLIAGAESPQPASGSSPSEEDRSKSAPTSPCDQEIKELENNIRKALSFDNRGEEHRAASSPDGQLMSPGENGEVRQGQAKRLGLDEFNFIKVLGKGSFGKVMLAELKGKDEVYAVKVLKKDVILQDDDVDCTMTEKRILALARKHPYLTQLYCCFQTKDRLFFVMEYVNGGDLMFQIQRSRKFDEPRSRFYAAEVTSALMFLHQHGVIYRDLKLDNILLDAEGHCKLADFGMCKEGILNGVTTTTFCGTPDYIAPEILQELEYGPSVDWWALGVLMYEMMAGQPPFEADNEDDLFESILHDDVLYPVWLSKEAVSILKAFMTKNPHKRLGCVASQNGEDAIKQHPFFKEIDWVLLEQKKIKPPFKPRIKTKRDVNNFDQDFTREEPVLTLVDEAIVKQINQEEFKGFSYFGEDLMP
Summary of the method: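 PKC epsilon at 10 ng/ml final was preincubated 30 min at room temperature with compound in HEPES pH 7.4 with DTT and Triton X-100. ATP/protein substrate was then added in buffer with MgCl2 and CaCl2 for 80 min. The reaction was stopped with EDTA, phosphorylation was detected by fluorescence polarization with rhodamine tracer and anti-phosphoserine antibody, and IC50 values came from curve fits.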

T1 sequence (O75116 11-552 limits assumed): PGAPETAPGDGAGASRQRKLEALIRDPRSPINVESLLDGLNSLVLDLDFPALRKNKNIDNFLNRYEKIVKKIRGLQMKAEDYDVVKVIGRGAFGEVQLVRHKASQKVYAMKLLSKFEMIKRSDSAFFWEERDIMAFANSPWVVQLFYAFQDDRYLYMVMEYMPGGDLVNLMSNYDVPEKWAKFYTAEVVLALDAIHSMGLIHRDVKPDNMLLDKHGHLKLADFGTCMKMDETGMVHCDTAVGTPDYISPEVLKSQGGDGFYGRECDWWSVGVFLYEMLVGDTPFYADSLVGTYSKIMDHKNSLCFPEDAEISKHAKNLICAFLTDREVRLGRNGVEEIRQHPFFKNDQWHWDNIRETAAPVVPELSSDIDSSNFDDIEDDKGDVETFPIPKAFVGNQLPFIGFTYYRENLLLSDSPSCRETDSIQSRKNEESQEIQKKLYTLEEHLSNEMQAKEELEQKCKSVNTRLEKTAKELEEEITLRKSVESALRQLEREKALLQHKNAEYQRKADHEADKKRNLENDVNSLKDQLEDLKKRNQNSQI

Compound	IC50 (human ROCKα/ROCKII mix) [µM]	IC50 (PKC epsilon) [µM]
CS(=O)(=O)c1ccc(CNC(=O)CC(N)c2ccc(C(=O)Nc3ccncc3)cc2)cc1 (stereo not drawn) [Compound 275, 4-[1-Amino-2-(4-methanesulfonyl-benzylcarbamoyl)-ethyl]-N-pyridin-4-yl-benzamide]	0.05 to 0.5	0.5 to 5
NC(CC(=O)NC1Cc2ccccc2C1)c1ccc(C(=O)Nc2ccncc2)cc1 (stereo not drawn) [Compound 280, 4-[1-amino-2-(indan-2-ylcarbamoyl)-ethyl]-N-pyridin-4-yl-benzamide]	0.05 to 0.5	0.5 to 5
CC(CNC(=O)CC(N)c1ccc(C(=O)Nc2ccncc2)cc1)c1ccccc1 (stereo not drawn) [Compound 283, 4-[1-Amino-2-(2-phenyl-propyl-carbamoyl)-ethyl]-N-pyridin-4-yl-benzamide]	0.05 to 0.5	0.5 to 5
Cc1ccc(CCNC(=O)CC(N)c2ccc(C(=O)Nc3ccncc3)cc2)cc1 (stereo not drawn) [Compound 284, 4-[1-Amino-2-(2-p-tolyl-ethyl-carbamoyl)-ethyl]-N-pyridin-4-yl-benzamide]	0.05 to 0.5	5 to 50
CC(C)(C)c1ccc(CCNC(=O)CC(N)c2ccc(C(=O)Nc3ccncc3)cc2)cc1 (stereo not drawn) [Compound 285, 4-{1-Amino-2-[2-(4-tert-butyl-phenyl)-ethylcarbamoyl]-ethyl}-N-pyridin-4-yl-benzamide]	0.05 to 0.5	5 to 50
CCOc1ccccc1CCNC(=O)CC(N)c1ccc(C(=O)Nc2ccncc2)cc1 (stereo not drawn) [Compound 288, 4-{1-Amino-2-[2-(2-ethoxy-phenyl)-ethylcarbamoyl]-ethyl}-N-pyridin-4-yl-benzamide]	0.05 to 0.5	0.5 to 5
COc1cccc(CCNC(=O)CC(N)c2ccc(C(=O)Nc3ccncc3)cc2)c1 (stereo not drawn) [Compound 289, 4-{1-Amino-2-[2-(3-methoxy-phenyl)-ethylcarbamoyl]-ethyl}-N-pyridin-4-yl-benzamide]	0.05 to 0.5	0.5 to 5
CCOc1ccc(CCNC(=O)CC(N)c2ccc(C(=O)Nc3ccncc3)cc2)cc1 (stereo not drawn) [Compound 290]	0.05 to 0.5	0.5 to 5
COc1ccc(CCNC(=O)CC(N)c2ccc(C(=O)Nc3ccncc3)cc2)cc1 (stereo not drawn) [Compound 291, 4-{1-Amino-2-[2-(4-methoxy-phenyl)-ethylcarbamoyl]-ethyl}-N-pyridin-4-yl-benzamide]	0.05 to 0.5	0.5 to 5

Results, then the compound that gave them:

IC50 (human ROCKα/ROCKII mix) [µM]	IC50 (PKC epsilon) [µM]	Compound
0.05 to 0.5	0.5 to 5	NC(CC(=O)NCc1cc(C(F)(F)F)cc(C(F)(F)F)c1)c1ccc(C(=O)Nc2ccncc2)cc1 (stereo not drawn) [Compound 268, 4-[1-Amino-2-(3,5-bis-trifluoromethyl-benzylcarbamoyl)-ethyl]-N-pyridin-4-yl-benzamide]
0.05 to 0.5	0.5 to 5	NC(CC(=O)NCc1ccccc1OC(F)(F)F)c1ccc(C(=O)Nc2ccncc2)cc1 (stereo not drawn) [Compound 269, 4-[1-Amino-2-(2-trifluoromethoxy-benzylcarbamoyl)-ethyl]-N-pyridin-4-yl-benzamide]
0.05 to 0.5	0.5 to 5	NC(CC(=O)NCc1cccc(OC(F)(F)F)c1)c1ccc(C(=O)Nc2ccncc2)cc1 (stereo not drawn) [Compound 270, 4-[1-Amino-2-(3-trifluoromethoxy-benzylcarbamoyl)-ethyl]-N-pyridin-4-yl-benzamide]
0.05 to 0.5	0.5 to 5	NC(CC(=O)NCc1ccc(OC(F)(F)F)cc1)c1ccc(C(=O)Nc2ccncc2)cc1 (stereo not drawn) [Compound 271, 4-[1-Amino-2-(4-trifluoromethoxy-benzylcarbamoyl)-ethyl]-N-pyridin-4-yl-benzamide]
0.05 to 0.5	0.5 to 5	NC(CC(=O)NCc1cccc([N+](=O)[O-])c1)c1ccc(C(=O)Nc2ccncc2)cc1 (stereo not drawn) [Compound 272, 4-[1-Amino-2-(3-nitro-benzylcarbamoyl)-ethyl]-N-pyridin-4-yl-benzamide]
0.05 to 0.5	0.5 to 5	NC(CC(=O)NCc1ccc([N+](=O)[O-])cc1)c1ccc(C(=O)Nc2ccncc2)cc1 (stereo not drawn) [Compound 273, 4-[1-Amino-2-(4-nitro-benzylcarbamoyl)-ethyl]-N-pyridin-4-yl-benzamide]
